Data: patent publication US20230414626A1, “INDUCTION OF FERROPTOSIS FOR CANCER THERAPY” (Memorial Sloan Kettering Cancer Center, priority 2020, published 2023)

Test system: PI3K-mutated BT474 breast cancer xenograft tumors
Assay: In vivo xenograft mouse model, GPX4-iKO BT474
Settings: nu/nu mice, CCI-779 2 mg/kg daily i.p., Dox diet induces GPX4 knockout
Experimental: FIG. 6 A-F. Combination of mTORC1 inhibition with ferroptosis induction leads to tumor regression in vivo. (A) CRISPR/Cas9-mediated, Dox-induced GPX4 knockout (GPX4-iKO) in BT474 cells, monitored by western blot. (B) Images of resected tumors from mice xenografted with GPX4-iKO BT474 cells. Groups of mice were treated with CCI-779 and/or Dox as indicated (n=6 per group). See Methods for detail. (C) Representative haematoxylin and eosin (H&E) and immunostaining images of GPX4, Ki67, PTGS2 and pS235/236 S6, all counterstained with haematoxylin (blue), are shown from sections of xenografted tumors. Scale bar, 50 μm. (D) Growth curves of BT474 tumors of each group. […]
FIG. 13 A-E. Combination of mTORC1 inhibition with ferroptosis induction leads to tumor regression. […] (B) BT474 tumor volume was measured every day for each mouse. […] (E) PC-3 tumor volume was measured every day for each mouse. […]
17-β-estradiol 60-day release pellets were implanted subcutaneously into the left flank 7 days before tumor inoculation. […] Tumor growth was monitored regularly via external caliper measurements. […] The maximum width (X) and length (Y) of the tumor were measured every day and the volume (V) was calculated using the formula: V=(X2Y)/2. Tumor growth was monitored over time. For all experiments, mice were sacrificed at a pre-determined endpoint. […]

CO[C@H]1C[C@@H]2CC[C@@H](C)[C@@](O)(O2)C(=O)C(=O)N2CCCC[C@H]2C(=O)O[C@H]([C@H](C)C[C@@H]2CC[C@@H](OC(=O)C(C)(CO)CO)[C@H](OC)C2)CC(=O)[C@H](C)/C=C(\C)[C@@H](O)[C@@H](OC)C(=O)[C@H](C)C[C@H](C)/C=C/C=C/C=C/1C [CCI-779, Temsirolimus]
tumor growth: decelerated tumor growth
